Experimental data from patent publication US7361633B2, “Screening method and anti-tumor drug candidate obtained therefrom” (Ardana Bioscience Limited, priority 2002, dated 2008).
Entries after “also recorded” stand apart in the source; their conditions may differ.

Assays:
[1] = test system: ERK1/2; assay: ERK1/2 phosphorylation immunoblot in BPH-1 cells; type: cell-based, human; conditions: for extent of ERK1/2 activation: FIG. 5 panel c
Text: The panel depicts a representative anti-phospho-ERK1/2 w-c lysate immunoblot of stimulated BPH-1 cell extracts. […] Each bar of the histogram represents the mean±s.e. mean of three to four experimental replicates. […] Panel c) depicts the extent of ERK1/2 activation in BPH-1 cells induced by stimulation with GnRH I, II, Ant 135-25 and Ant 135-18. […] Each bar of the histogram represents the mean± s.e. mean of three to four experimental replicates.

[2] = test system: HEK293 cells stably expressing the Type I GnRHR (SCL60); assay: Anti-proliferative effect on SCL60 cells, viable cell count after 5 days; type: cell-based, human; conditions: 5 days continuous treatment, trypan blue exclusion
Method: An identical methodology of measuring cell growth was employed as in FIG. 1.
(§1) Each cell type was plated at an initial minimal confluency (10-20%) to allow for 5 days of normal continual cell growth that would not result in 100% cell confluency by day 5. Each ligand was incubated, in triplicate for every experimental concentration, with the cell monolayers for five days with replacement of the ligand every 12 h. At the end of the stimulation period the number of viable cells was estimated by their capacity to prevent uptake of Trypan Blue stain.
We further investigated the nature of the ligand-receptor specificity of the anti-proliferative effects of GnRH receptor systems by studying our ligand panel effects upon a model cell background, i.e. SCL60 HEK293 cells stably expressing the rat Type I GnRHR. […] We attribute this greater effect of the GnRHR ligands upon the SCL60 cells to the much greater level of receptor expression in the SCL60 cells.

[3] = biological target: T1, Type I GnRH receptor (Rattus norvegicus, UniProt P30969); assay: Inositol phosphate accumulation in SCL60 (HEK293) cells; type: cell-based; conditions: GnRH I 10 nM
T1 construct: expressed in transfected cells
T1 sequence (P30969 1-327): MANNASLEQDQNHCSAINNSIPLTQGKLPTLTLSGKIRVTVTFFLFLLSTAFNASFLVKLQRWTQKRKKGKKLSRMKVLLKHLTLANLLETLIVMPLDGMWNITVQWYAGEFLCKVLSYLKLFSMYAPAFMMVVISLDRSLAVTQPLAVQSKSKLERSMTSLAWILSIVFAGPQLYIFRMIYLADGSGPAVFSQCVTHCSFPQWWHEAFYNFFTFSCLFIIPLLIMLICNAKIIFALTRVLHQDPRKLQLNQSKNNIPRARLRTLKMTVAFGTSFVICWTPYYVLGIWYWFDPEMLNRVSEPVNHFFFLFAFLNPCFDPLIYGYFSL
Method: The histograms in panels a and b represent inositol phosphate accumulation data from HEK293 cells stably expressing the Type I GnRH receptor only (SCL60). […] In panels c and d, the liberated inositol phosphates generated were measured in the proto-gonadotrope cells (αT4) stably expressing the marmoset Type II GnRH receptor (designated αT4-II).
The ability of the four major agents under study at activating ectopically expressed Type I or Type II GnRHR were tested (FIG. 12). The classical signal transduction cascade activated by GnRHR stimulation is the Gαq-PLC-β cascade. Both Type I and II receptor can stimulate the Gαq-PLC type-G-protein and activate PLC-β which cleaves phosphatidylinositol bisphosphate (PIP2) into inositol trisphosphate (IP3), other lower inositol phosphates (IPn) and diacylglycerol (DAG). The major function of IP3 is to elevate intracellular Ca^2+ while DAG causes the activation of specific PKC (protein kinase C) isoforms.
Panels a and b of FIG. 12 depict the generation of free cytoplasmic ^3H-myo-inositols on the plasma membranes of HEK293 cells expressing the Type I GnRHR and of αT4 gonadotropes expressing the marmoset Type II GnRHR. Prior to agonist stimulation the respective cells were incubated in inositol-free growth media supplemented with 1 μCi/ml ^3H-myoinositol for 48 h. G protein coupled receptor (GPCR)-induced activation of PLC-β results in the cleavage of PIP2 (incorporating tritium ^3H) into free lower inositol phosphates (IPns).

[4] = test system: human benign prostate hyperplastic (BPH-1) cells; assay: Anti-proliferative effect on BPH-1 cells, viable cell count after 5 days; type: cell-based; conditions: 5 days continuous treatment, trypan blue exclusion
Method: Low cell density BPH-1 cell subcultures were treated for 5 days continuously with the indicated doses of GnRH I (a), GnRH II (b), Ant 135-18 (c) or Ant 135-25 (d) added directly to RPMI 1640 medium supplemented with 10% FCS, glutamine and penicillin/streptomycin. Ligands were replenished every 24 h. At the end of the stimulation period cells were removed form the growth plates by trypsin and mixed with trypan blue dye (enters non-viable cells). Only viable cells were therefore counted using a haemocytometer in quadruplicate for each ligand dose. The bars in each histogram represent the mean±s.e. mean of n=4 experiments.
as §1
Employing an identical growth and stimulation methodology to that described in the previous paragraph and in FIG. 1 we exposed the hyperplastic cell line, BPH-1, to the same panel of GnRH ligands and antagonistic analogues (FIG. 2). Reminiscent of FIG. 1 both endogenous GnRH agonists exert a similar mode of action with respect to their dose-dependent inhibition of BPH-1 cell growth over the five day stimulation period.

Molecule: C[S+]([O-])c1ccc(-c2nc(-c3ccncc3)c(-c3ccc(F)cc3)[nH]2)cc1 (centres unmarked) [SB203580]
- effect on GnRH-mediated ERK activation ([1]; 1 μM SB203580, data not shown): no significant effect

Molecule: Ac-D-Nal(2)-D-4-ClPhe-D-Pal-Ser-Ile-D-IsopropylLys-Leu-IsopropylLys-Pro-D -AlaNH2 [Ant 135-18]
- anti-proliferative effect (viable cell number) [2]: low efficacy compared to the other ligands
- anti-proliferative effect (viable cell number) ([2]; listed as Ant135-18): relatively ineffective at inhibiting the SCL60 cell proliferation
- agonistic activity: liberated inositol phosphates at Type I GnRH receptor [3]: little classical agonistic capacity
- agonistic activity: liberated inositol phosphates at Type I GnRH receptor ([3]; listed as 135-18): no activation of the PLC-β signal at the Type I receptor evident
- agonistic activity: liberated inositol phosphates at Type I GnRH receptor ([3]; listed as Ant135-18): demonstrate no partial agonistic activity
- extent of ERK1/2 activation [1]: A similar pattern to JEG-3 of ligand activation
- extent of ERK1/2 activation ([1]; listed as Ant135-18): considerably less
- anti-proliferative effect (viable cell number) [4]: much lower potency and efficacy compared to Ant 135-25 and GnRH I
- anti-proliferative effect (viable cell number) ([4]; listed as Ant135-18): low ant-proliferative potency

Molecule: GnRH I: Gonadotropin-Releasing Hormone, a decapeptide; the original form of GnRH, re-named GnRH I
- anti-proliferative effect (viable cell number) [2]: greater anti-proliferative efficacy; also recorded: dramatic reduction in the cells growth rate and significant loss of total cell number
- agonistic activity: liberated inositol phosphates at Type I GnRH receptor [3]: yields an increase in free tritiated inositol phosphates; also recorded: significant increase in liberated inositol phosphates
- ERK1/2 activation, dose dependence ([1]; FIG. 5 panel a): strong and dose-dependent activation of ERK1/2
- extent of ERK1/2 activation [1]: A similar pattern to JEG-3 of ligand activation
- anti-proliferative effect (viable cell number) [4]: potent and dose-dependent anti-proliferative effect; also recorded: more potent that GnRH II in its capacity to arrest cell growth

Molecule: Ac-D-Nal(2)-D-4-ClPhe-D-Pal-Ser-1-MePal-D-IsopropylLys-Leu-IsopropylLys-Pro-D-AlaNH2 [Ant 135-25]
- anti-proliferative effect (viable cell number) [2]: greater anti-proliferative efficacy
- anti-proliferative effect (viable cell number) ([2]; listed as Ant135-25): nearly an as efficacious action as either GnRH I or GnRH II
- agonistic activity: liberated inositol phosphates at Type I GnRH receptor [3]: no classical agonistic activity is demonstrated
- agonistic activity: liberated inositol phosphates at Type I GnRH receptor ([3]; listed as 135-25): no IPn-generating capacity
- agonistic activity: liberated inositol phosphates at Type I GnRH receptor ([3]; listed as Ant135-25): demonstrate no partial agonistic activity
- agonistic activity: liberated inositol phosphates at Type I GnRH receptor ([3]; listed as antagonist 135-25): failed to generate significant free inositol phosphate
- extent of ERK1/2 activation [1]: A similar pattern to JEG-3 of ligand activation
- anti-proliferative effect (viable cell number) [4]: anti-proliferative effect upon BPH-1 cells with a similar potency to that of GnRH I
